The record followed here is patent publication US20250145715A1, “B7-H3 TARGETING FUSION PROTEINS AND METHODS OF USE THEREOF” (GT Biopharma, Inc., priority 2021, published 2025).

Type in all cases: cell-based, human
One test deals with U266 cells. Kind of test: IncuCyte Zoom NK cell killing of U266. The settings on record: E:T 2:1 and 4:1. The source says: (§1) FIGS. 7A-7B illustrate the ability of peripheral blood NK cells with or without B7-H3-TriKE to kill myeloma cells in live imaging IncuCyte Zoom assays. FIG. 7A is a graph showing the effects with effector:target (E:T) ratios of 2:1 and 4:1 on MM1S cells. FIG. 7B is a graph showing the effects with effector:target (E:T) ratios of 2:1 and 4:1 on U266 cells.
(§2) FIGS. 8A-8D illustrate the ability of peripheral blood NK cells with or without B7-H3-TriKE to kill myeloma cells in live imaging IncuCyte Zoom assays. FIG. 8A is a graph showing the effects with effector:target (E:T) ratios of 2:1 and 4:1 on H929 cells. FIG. 8B is a graph showing the effects with effector:target (E:T) ratios of 2:1 and 4:1 on MM1S cells. FIG. 8C is a graph showing the effects with effector:target (E:T) ratios of 2:1 and 4:1 on RPMI-8226 cells. FIG. 8D is a graph showing the effects with effector:target (E:T) ratios of 2:1 and 4:1 on U266 cells.
FIGS. 9A-9D illustrate the efficacy of B7-H3-TriKE with the proteasome inhibitor bortezomib (10 nM) and the immunomodulatory drug lenalidomide (5 μM). FIG. 9A is a graph showing the effect of the combination therapy on H929 cells after 48 hours. FIG. 9B is a graph showing the effect of the combination therapy on RPMI-8226 cells after 48 hours. FIG. 9C is a graph showing the effect of the combination therapy on MM1S cells after 48 hours. […]

Another test concerns MM1S cells. Kind of test: IncuCyte Zoom NK cell killing of MM1S. As to conditions: E:T 2:1 and 4:1.
Text: as §1, §2
FIGS. 9A-9D illustrate the efficacy of B7-H3-TriKE with the proteasome inhibitor bortezomib (10 nM) and the immunomodulatory drug lenalidomide (5 μM). FIG. 9A is a graph showing the effect of the combination therapy on H929 cells after 48 hours. FIG. 9B is a graph showing the effect of the combination therapy on RPMI-8226 cells after 48 hours. FIG. 9C is a graph showing the effect of the combination therapy on MM1S cells after 48 hours. FIG. 9D is a graph showing the effect of the combination therapy on U266 cells after 48 hours.
The ability of peripheral blood NK cells with or without B7-H3-TriKE to kill myeloma cells was compared in live imaging IncuCyte Zoom assays with escalating doses of TriKE. Maximal killing occurred with 3 nM concentration.
The efficacy of B7-H3-TriKE with the proteasome inhibitor bortezomib (10 nM) and the immunomodulatory drug lenalidomide (5 μM) was also tested. Cytotoxicity curves were compared by repeated measures ANOVA and performed in triplicate.

The subject of test [1] is C4-2 prostate cancer cells. Kind of test: NK cell CD107a / IFNγ flow cytometry against C4-2. As to conditions: normal donor and prostate cancer patient NK cells, vs controls. The source says:
FIG. 15A is a graph showing pooled analysis of proportion of NK cells from healthy donors or prostate cancer patients expressing CD107a+ (top) or IFNγ (bottom) against C4-2 targets (N=9 for healthy donors, N=3 for patients). FIG. 15B is a graph showing pooled analysis of proportion of NK cells from healthy donors or prostate cancer patients expressing CD107a+ (top) or IFNγ (bottom) against DU145 targets (N=9 for healthy donors, N=3 for patients). FIG. 15C is a graph showing pooled analysis of proportion of NK cells from healthy donors or prostate cancer patients expressing CD107a+ (top) or IFNγ (bottom) against LNCaP targets (N=9 for healthy donors, N=3 for patients). FIG. 15D is a graph showing pooled analysis of proportion of NK cells from healthy donors or prostate cancer patients expressing CD107a+ (top) or IFNγ (bottom) against PC3 targets (N=9 for healthy donors, N=3 for patients). * p<0.05, ** p<0.01, *** p<0.001, and **** p<0.0001.
FIG. 23A is a graph illustrating percent CD107a+ NK cells in PBMCNK alone in the presence of 0.3 nM TriKE. […]
ADCC was measured in a flow cytometry assay by evaluating degranulation via CD107a (lysosomal-associated membrane protein LAMP-1) and intracellular IFNγ production. […] Samples were washed and evaluated in an LSRII flow cytometer (BD Biosciences, San Jose, CA, USA). […]

Regarding “B7-H3 TriKE: camelid nanobodies targeting CD16 and B7-H3 joined by IL-15 and two linkers; sequence table equates the name with cam1615B7-H3”, the “NK cell killing of U266” value with U266 cells is “significantly enhanced killing”. Also, in the test with MM1S cells, the “NK cell killing of MM1S” value is “significantly enhanced killing”.

As for “cam1615B7-H3: second-generation TriKE: humanized camelid anti-CD16 VHH, human wild-type IL-15, anti-B7-H3 mAb 376.96 scFv; SEQ ID NO:1”, in test [1], the “NK cell IFNγ production against C4-2” value is “enhanced” and the “NK cell degranulation (CD107a) against C4-2” value is reported as “enhanced”.
